# Assays:
# adult subjects with TRD [1] = type: in vivo, human
# Description: Blood pressure and pulse/heart rate measurements were assessed supine with a completely automated device. Manual techniques were used only if an automated device is not available. Blood pressure and pulse/heart rate measurements were preceded by at least 5 minutes of rest in a quiet setting without distractions (e.g., television, cell phones).
# Transient blood pressure increases peaked for the esketamine group at approximately 40 minutes post dose and returned to normal range at 90 minutes. […] The maximum mean increase (across all dosing days) in diastolic BP were 8.1 in the esketamine group and 4.5 in the active comparator group. FIGS. 7 and 8 present the means for measured blood pressure over time by treatment group in the double-blind phase.
# [2] = system: subjects with MDD at imminent risk for suicide; experiment: MADRS suicide item, […]2001; type: in vivo, human; conditions: 84 mg, ITT Analysis Set
# Source text: • a. Changes from baseline to Day 2 and Day 25 for the MADRS total score • b. Changes from baseline to Day 1 4-hours postdose, Day 2 and Day 25 for the MADRS Suicide Item • c. Changes from baseline to Day 1 4-hours postdose, Day 2, and Day 25 for the clinical global judgment of suicide risk from the Suicide Ideation and Behavior Assessment Tool (SIBAT) • d. Sustained response (Onset of Clinical Response) defined as at least 50% reduction from baseline in MADRS total score with onset on Day 1 that is maintained through the end of the double-blind phase (Day 25) • e. Changes from baseline to Day 1 4-hours postdose, Day 2, and Day 25 for the Beck Scale for Suicidal Ideation (BSS) • f. Changes from baseline to Day 1 4-hours postdose and Day 25 for the Beck Hopelessness Scale
# Results of the change from baseline over time for the suicide item from the MADRS assessment can be found in Attachment 1.
# [3] = system: patients with treatment-resistant depression (TRD); experiment: CGI-S, Example 7; type: in vivo, human
# Description: Overall illness severity was assessed on the Clinical Global Impression of Severity (CGI-S) scale (Guy, “ECDEU Assessment Manual for Psychopharmacology-Revised (DHEW Publ No ADM 76-338)”, Rockville, Md.: U.S. Department of Health, Education, and Welfare, Public Health Service, Alcohol, Drug Abuse, and Mental Health Administration, NIMH Psychopharmacology Research Branch, Division of Extramural Research Programs; 1976, pp 218-222). Participants assessed their severity of anxiety on the Generalized Anxiety Disorder 7-item (GADS-7) Scale (See, Tables 157 and 15). See, Spitzer, “A brief measure for assessing generalized anxiety disorder—the GAD-7”, Arch. Intern. Med., 2006, 166(10):1092-1097.
# adult subjects with TRD [4] = conditions: US patients
# Source text: Adverse events were reported by the subject (or, when appropriate, by a caregiver, surrogate, or the subject's legally acceptable representative) for the duration of the study. Adverse events were followed by the investigator. TEAEs of special interest were examined separately.
# The verbatim terms used in the eCRF by investigators to identify adverse events were coded using the MedDRA. All reported adverse events with onset during the double-blind induction phase (i.e., TEAEs, and adverse events that have worsened since baseline) were included in the analysis. For each adverse event, the percentage of subjects who experience at least 1 occurrence of the given event was summarized by treatment group. Adverse events occurring during the follow-up phase were summarized separately.
# TEAEs of special interest were examined separately. AEs of special interest were listed in the SAP. Subjects who died, who discontinued treatment due to an adverse event, or who experienced a severe or a serious adverse event were summarized separately.
# An adverse event is any untoward medical occurrence in a clinical study subject administered a medicinal (investigational or non-investigational) product. […]
# [5] = system: elderly subjects with TRD; type: in vivo, human; conditions: each dosing day
# Source text: The Modified Observer's Assessment of Alertness/Sedation (MOAA/S) was used to measure treatment-emergent sedation with correlation to levels of sedation defined by the American Society of Anesthesiologists (ASA) continuum. The MOAA/S scores range from 0 (No response to painful stimulus; corresponds to ASA continuum for general anesthesia) to 5 (Readily responds to name spoken in normal tone [awake]; corresponds to ASA continuum for minimal sedation). The proportion of subjects with sedation was <4% for the esketamine group for each dosing day.
# [6] = human, in vivo, other: intranasal
smiles,measurement,setting,value
"CN[C@]1(c2ccccc2Cl)CCCCC1=O [esketamine, (S)-2-(2-chlorophenyl)-2-(methylamino)cyclohexanone]",Maximum mean increase in diastolic BP (across all dosing days),adult subjects with TRD [1]; double-blind phase,8.1
same,Time of peak of transient blood pressure increases,adult subjects with TRD [1]; [6],approximately 40 minutes post dose
same,Time of return of blood pressure to normal range,adult subjects with TRD [1]; [6],90 min
same,"MADRS Suicide Item (Suicidal Thoughts), Change from Baseline, Med",[2]; Day 1(DB): 4H LOCF,−3.0
same,"MADRS Suicide Item (Suicidal Thoughts), Change from Baseline, Med",[2]; Day 1(DB): 4H,−3.0
same,"MADRS Suicide Item (Suicidal Thoughts), Change from Baseline, Med",[2]; Day 2(DB) LOCF,−3.0
same,"MADRS Suicide Item (Suicidal Thoughts), Change from Baseline, Med",[2]; Day 2(DB),−3.0
same,"MADRS Suicide Item (Suicidal Thoughts), Change from Baseline, Med",[2]; Day 3(DB) LOCF,−4.0
same,"MADRS Suicide Item (Suicidal Thoughts), Change from Baseline, Med",[2]; Day 3(DB),−4.0
same,"MADRS Suicide Item (Suicidal Thoughts), Change from Baseline, Med",[2]; Day 4(DB) LOCF,−4.0
same,"MADRS Suicide Item (Suicidal Thoughts), Change from Baseline, Med",[2]; Day 4(DB),−4.0
same,"MADRS Suicide Item (Suicidal Thoughts), Change from Baseline, Med",[2]; Day 5(DB) LOCF,−4.0
same,"MADRS Suicide Item (Suicidal Thoughts), Change from Baseline, Med",[2]; Day 5(DB),−4.0
same,"MADRS Suicide Item (Suicidal Thoughts), Change from Baseline, Med",[2]; Day 8(DB) LOCF,−4.0
same,"MADRS Suicide Item (Suicidal Thoughts), Change from Baseline, Med",[2]; Day 8(DB),−4.0
same,"MADRS Suicide Item (Suicidal Thoughts), Change from Baseline, Med",[2]; Day 11(DB) LOCF,−4.0
same,"MADRS Suicide Item (Suicidal Thoughts), Change from Baseline, Med",[2]; Day 11(DB),−4.0
same,"MADRS Suicide Item (Suicidal Thoughts), Change from Baseline, Med",[2]; Day 15(DB) LOCF,−4.0
same,"MADRS Suicide Item (Suicidal Thoughts), Change from Baseline, Med",[2]; Day 15(DB),−4.0
same,"MADRS Suicide Item (Suicidal Thoughts), Change from Baseline, Med",[2]; Day 18(DB) LOCF,−4.0
same,"MADRS Suicide Item (Suicidal Thoughts), Change from Baseline, Med",[2]; Day 18(DB),−4.0
same,"MADRS Suicide Item (Suicidal Thoughts), Change from Baseline, Med",[2]; Day 22(DB) LOCF,−4.0
same,"MADRS Suicide Item (Suicidal Thoughts), Change from Baseline, Med",[2]; Day 22(DB),−4.0
same,"MADRS Suicide Item (Suicidal Thoughts), Change from Baseline, Med",[2]; Day 25(DB): 4H,−4.5
same,"MADRS Suicide Item (Suicidal Thoughts), Change from Baseline, Med",[2]; Day 25(DB): Predose LOCF,−4.0
same,"MADRS Suicide Item (Suicidal Thoughts), Change from Baseline, Med",[2]; Day 25(DB): Predose,−4.5
same,"MADRS Suicide Item (Suicidal Thoughts), Change from Baseline, Med",[2]; Day 32(FU) LOCF,−4.0
same,"MADRS Suicide Item (Suicidal Thoughts), Change from Baseline, Med",[2]; Day 32(FU),−4.0
same,"MADRS Suicide Item (Suicidal Thoughts), Change from Baseline, Med",[2]; Day 39(FU) LOCF,−5.0
same,"MADRS Suicide Item (Suicidal Thoughts), Change from Baseline, Med",[2]; Day 39(FU),−5.0
same,"MADRS Suicide Item (Suicidal Thoughts), Change from Baseline, Med",[2]; Day 46(FU) LOCF,−4.0
same,"MADRS Suicide Item (Suicidal Thoughts), Change from Baseline, Med",[2]; Day 46(FU),−4.0
same,"MADRS Suicide Item (Suicidal Thoughts), Change from Baseline, Med",[2]; Day 53(FU) LOCF,−4.0
same,"MADRS Suicide Item (Suicidal Thoughts), Change from Baseline, Med",[2]; Day 53(FU),−5.0
same,"MADRS Suicide Item (Suicidal Thoughts), Change from Baseline, Med",[2]; Day 67(FU) LOCF,−4.0
same,"MADRS Suicide Item (Suicidal Thoughts), Change from Baseline, Med",[2]; Day 67(FU),−4.0
same,"MADRS Suicide Item (Suicidal Thoughts), Change from Baseline, Med",[2]; Day 81(FU),−5.0
same,"MADRS Suicide Item (Suicidal Thoughts), Change from Baseline, Med",[2]; End Point(DB),−4.0
same,"MADRS Suicide Item (Suicidal Thoughts), Change from Baseline, Med",[2]; End Point(FU),−5.0
same,CGI-S Median Change,"[3]; 28 mg, Period 1, first day to day 8",−1.0
same,CGI-S Median,"[3]; 28 mg, Period 1 end point",4.0
same,CGI-S Median Change,"[3]; 28 mg, Period 2, first day to day 8 of period",−1.0
same,CGI-S Median,"[3]; 28 mg, Period 2 end point",4.0
same,CGI-S Median Change,"[3]; 56 mg, Period 1, first day to day 8",−1.0
same,CGI-S Median,"[3]; 56 mg, Period 1 end point",4.0
same,CGI-S Median Change,"[3]; 56 mg, Period 2, first day to day 8 of period",−1.0
same,CGI-S Median,"[3]; 56 mg, Period 2 endpoint",5.0
same,CGI-S Median Change,"[3]; 84 mg, Period 1, first day to day 8",−0.5
same,CGI-S Median,"[3]; 84 mg, Period 1 end point",4.0
same,CGI-S Median Change,"[3]; 84 mg, Period 2, first day to day 8 of period",−1.0
same,CGI-S Median,"[3]; 84 mg, Period 2 endpoint",4.0
same,Patients who withdrew from nasal spray drug,adult subjects with TRD [4],3 patients
same,Proportion of subjects with sedation (post dose MOAA/S score of ≤3),[5],< 4%
